From PMC4919791, “Effect of curcumin analogs onα-synuclein aggregation and cytotoxicity” (Scientific Reports, 2016)

Key:
α-Syn fibrils = target: T1, α-Syn fibrils (Homo sapiens, UniProt P37840); assay: LDH cytotoxicity assay of α-Syn fibrils formed in presence of curcumin analogs; type: cell-based; conditions: SH-SY5Y cells
T1 construct: made in house; host or cells: Escherichia coli BL21
Source text: The percent LDH release was plotted as difference in the absorbance value of 490 nm and 690 nm, considering 100% release for the TritonX-100 treated cells.

preformed α-Syn fibrils [1] = target: T2, preformed α-Syn fibrils (Homo sapiens, UniProt P37840); assay: Calcein-AM/EthD-1 staining, preformed α-Syn fibrils with analogs; type: cell-based; conditions: SH-SY5Y cells
T2 construct: made in house; host or cells: Escherichia coli BL21
Procedure: Previously it has been shown that curcumin decreases the toxicity of α-Syn amyloid fibrils by reducing the exposed hydrophobic surfaces. To delineate whether curcumin analogs can decrease the toxicity of preformed α-Syn fibrils, we performed cell viability assay. For this, 10-days incubated α-Syn solution was centrifuged (fibril formation was confirmed by electron microscopy (EM)) and the pelleted fibrils were then re-dissolved in same volume of 20 mM MES buffer (pH 6.0, 0.01% NaN3). The concentration of the fibrils was determined by subtraction of supernatant concentration from the original concentration of α-Syn kept for fibrillation. […] After incubation, we measured the effect of curcumin analogs on the toxicity of preformed α-Syn amyloid fibrils by MTT reduction assay on SH-SY5Y cells. […]
(§1) For this assay, SH-SY5Y cells were seeded in 96 well plate and incubated with identical concentrations of oligomers/fibrils (as used in MTT assay) in absence and presence of curcumin and its analogs for 36 h in 5% CO2 incubator at 37 °C. […] Calcein-AM/Ethidium homodimer-1 signal was then checked and imaged with an inverted fluorescence microscope (Leica DMi8). […] The free calcein emits strong fluorescence signal at ~535 nm, which could be easily observed in the green channel of a microscope. […]

preformed α-Syn fibrils [2] = target: T2, preformed α-Syn fibrils; assay: Nile red binding assay on preformed α-Syn fibrils; type: biochemical; conditions: fibrils incubated with analog 48 h
Procedure: Stock solution of NR was prepared in DMSO (1 mM). […] Similar experimental protocol was used for NR binding to oligomers. FluoroMax-4 spectrofluorometer (HORIBA JobinYvon) was used with excitation and emission slit widths of 5 nm. The maximum NR fluorescence obtained at ~630 nm was used for plotting bar diagrams.

α-Syn = target: T3, α-Syn (Homo sapiens, UniProt P37840); assay: TEM of α-Syn aggregates formed in presence of analogs; type: biochemical
T3 construct: made in house; host or cells: Escherichia coli BL21
Procedure: Subsequently, we examined the effect of these analogs on α-Syn oligomerization by time dependent static light scattering experiment. […] After aggregation, TEM study was done to determine the effects of these analogs on the morphology of the resultant aggregates.
The samples were then washed thrice with autoclaved MQ. The samples were then stained with 10 μl of uranyl formate 1% (w/v) and incubated in dark for 10 min. The EM image of each sample was acquired at 120 kV with magnifications in the range of 26,000X and 43,000X using a transmission electron microscope (TECNAI12 D312 FEI, Netherlands).

α-Syn oligomers [3] = target: T4, α-Syn oligomers (Homo sapiens, UniProt P37840); assay: Binding affinity to α-Syn oligomers by curcumin analog fluorescence; conditions: compound fluorescence; read-out: dissociation constant (Kd) for α-Syn oligomers
T4 construct: made in house; host or cells: Escherichia coli BL21
Procedure: Immediately after incubation, fluorescence study was performed (for the excitation and emission ranges for each compounds, see Fig. S1). Experiments were performed using FluoroMax-4 spectrofluorometer (HORIBA JobinYvon) with excitation and emission slit widths of 5 nm.
The data were analyzed in Graphpad Prism software according to established method as used previously.

α-Syn oligomers [4] = target: T4, α-Syn oligomers; assay: Calcein-AM/EthD-1 staining, α-Syn oligomers with C1/C6; type: cell-based; conditions: SH-SY5Y cells
Source text: It has been shown that α-Syn mutants that form oligomers preferentially are more toxic and kill dopaminergic neurons in animal models as compared to fibril forming mutants. Therefore, compounds that effectively reduce the toxicity of oligomers could be beneficial for the treatment of PD. In the present study, we tested the effect of curcumin and its analogs on the toxicity, hydrophobic exposure and morphology of α-Syn oligomers isolated using size exclusion chromatography (SEC). The toxicity of α-Syn oligomers in presence and absence of curcumin/analogs were initially tested using MTT assay. […] As previously it has been proposed that curcumin reduces the oligomers toxicity by altering their exposed hydrophobic surface, we also measured the hydrophobic surface exposure of preformed α-Syn oligomers incubated with curcumin and its analogs.
as §1

[5] = target: T5, preformed α-Syn amyloid fibrils (Homo sapiens, UniProt P37840); assay: MTT assay of preformed α-Syn fibrils incubated with curcumin analogs; type: cell-based; conditions: fibrils incubated with analog 48 h at 37 °C; SH-SY5Y cells
T5 construct: made in house; host or cells: Escherichia coli BL21
Procedure: The concentration of the fibrils was determined by subtraction of supernatant concentration from the original concentration of α-Syn kept for fibrillation.

[6] = Stability of curcumin analogs by time-dependent intrinsic fluorescence; type: physicochemical; conditions: 20 mM MES buffer pH 6.0, 0.01% NaN3, 37 °C
Procedure: 1μl of this DMSO-stock solution was transferred to 2 ml microfuge tube and 1 ml of 20 mM MES buffer (pH 6.0, 0.01% NaN3) was added to it and mixed immediately by vortexing. These solutions were incubated at 37 °C and their respective fluorescence was taken at certain time intervals. The fluorescence was monitored by placing the 200 μl of the incubated solution in 0.1 cm path-length quartz cuvette (Hellma, Forest Hills, NY) and the spectra were acquired by using FluoroMax-4 spectrofluorometer (HORIBA JobinYvon) instrument with excitation and emission slit widths of 5 nm and 10 nm respectively. The fluorescence intensity maxima for each sample were plotted against time of incubation and fitted in exponential decay 1 in the Origin 8.0 software according to manufacture’s protocol (Fig. 2A).

Calcein-AM/EthD-1 staining with preformed α-Syn fibrils (preformed α-Syn fibrils [1]): less nuclear staining by EthD-1
Kd (α-Syn oligomers [3]): 16.1 ± 3.81 µM
ethidium homodimer staining with α-Syn oligomers (α-Syn oligomers [4]): less ethidium homodimer staining
relative stability compared with curcumin (slope of normalized fluorescence versus time) [6]: relatively more stable than curcumin
Structure (SMILES): COc1cc(/C=C/C(=O)CC(=O)/C=C/c2ccc(OCc3ccccc3)c(OC)c2)ccc1OCc1ccccc1 [C6]
toxicity of α-Syn fibrils formed in presence of analog, LDH (α-Syn fibrils): less toxicity to cells
Nile red fluorescence of preformed α-Syn fibrils (exposed hydrophobic surface) (preformed α-Syn fibrils [2]): less NR fluorescence for fibrils as compared to curcumin
average fibril thickness of fibrils formed in presence of analog (α-Syn): more in comparison to fibrils formed in presence of other analogs
cell viability, MTT, preformed α-Syn fibrils incubated with analog [5]: 92.9%
effect on toxicity of preformed α-Syn fibrils, MTT [5]: reduction in toxicity
